Test results: patent US4535081A, “Antiallergic and antiulcer 1-oxo-1H-thiazolo[3,2-a]pyrimidine-2-carboxamides and intermediates therefor” (Pfizer Inc., priority 1983, dated 1985)
Entries after “also recorded” stand apart in the source; their conditions may differ. Structures can show the parent of a compound that is named as a salt. Where two headings read alike, the source gives them in different places.

Key:
[1] = test system: IgE (reaginic antiserum) PCA reaction; assay: Oral activity in PCA test, IgE; format: in vivo, rat; settings: Rattus norvegicus, IgE, oral
Method: (§1) The antiallergy property of the compounds of this invention is evaluated by the passive cutaneous anaphylaxis (PCA) test (Ovary, J. Immun., 81, 355, 1958). In the PCA test, normal animals are injected intradermally (i.d.) with antibodies contained in serum obtained from actively sensitized animals. The animals are then challenged intravenously with antigen mixed with a dye such as Evans' Blue. The increased capillary permeability caused by the antigen-antibody reaction causes the dye to leak from the site of the antibody injection. The test animals are then asphyxiated and the intensity of the reaction determined by measuring the diameter and intensity of the blue coloration on the inner surface of the animals' skin.
The PCA test is a measure of the anti-allergic (especially anti-asthmatic) activity of a compound. Compounds which inhibit a positive PCA test induced by the rat immunochemical counterpart of human immunoglobulin E (IgE), or reagin, are considered to have anti-allergic activity (C. Mota, Ann. N.Y. Acad. Sci., 103, 264 1963). (Reagin is primarily immunoglobulin E [IgE] and is the principal immunoglobulin responsible for allergic asthma, anaphylaxis, hay fever, food sensitivities and certain manifestations of drug sensitivities, although recent evidence ascribes to the IgG class of antibodies a significant role in the mediation of allergic diseases). Such compounds when administered to a sensitized subject, human or animal, prior to the time when the subject comes into contact with antigens or substances to which it is allergic, will prevent the allergic reaction which would otherwise occur. They, therefore, provide a method for the prophylactic treatment of allergy or anaphylactic reactions of a reagin mediated nature.
To put it another way, such compounds block the release of mediators resulting from the antigen-antibody (allergic) reaction as illustrated in the PCA test using rat homocytotropic antibody--a known correlate of human reaginic antibody. Inhibition of reaginic antigen-antibody reactions in rats, the test animal of the PCA test, is regarded as representative of inhibition of human reaginic antigen-antibody reactions which occur during allergic episodes.
The ability of agents to interfere with PCA reactions is measured in male Charles River Wistar rats, 170-210 g. Reaginic antiserum, rich in IgE antibodies, is prepared according to Petillo et al., Int. Arch. Allergy, 44, 309 (1973). Hyperimmune antiserum rich in IgG antibodies to hen egg albumin is prepared according to Orange et al., J. Exptl. Med., 127, 767 (1968). Forty-eight hours prior to antigen challenge, the reaginic antiserum is injected intradermally (i.d.) into the shaved skin of a normal rat's back; 5 hours before challenge the hyperimmune antisera is similarly injected. At a third site 60 mcg. histamine dihydrochloride and 0.5 mcg. serotonin creatinine sulfate are injected i.d. just prior to antigen challenge as a check for antihistaminic, antiserotonin and unspecific types of blockage; the compounds of the instant invention or saline are then administered i.v. and immediately followed by the challenge of 5 mg. egg albumen and 2.5 mg. Evans' Blue dye in saline. In the case of oral administration Evans' Blue dye and egg albumin are given 5 minutes after administration of the drug. Thirty minutes later the animals are asphyxiated using chloroform and the skin of the back removed and reversed for observation. A score is assigned each injection site equal to the product of the diameter of the site in mm. and a grade of 0.1, 0.5, 1, 2, 3 or 4 proportional to intensity of dye coloration. The scores for a given injection site are summed for each group of five animals and compared to the saline treated controls. The difference is expressed as percent blockage due to the compound employed. […]

ethanol-induced ulcer = assay: Ethanol-induced rat ulcer assay; format: in vivo; settings: oral, 5 mg./kg.; for % Inhibition in the Ethanol-Induced Rat Ulcer Assay, acids: Table IV; for % Inhibition in the Ethanol-Induced Rat Ulcer Assay, amides: Table III
Method: Alternatively, the effectiveness of the products of this invention as antiulcer agents is determined in an ethanol-induced rat ulcer assay. In this test, overnight fasted male rats are given drug (5 mg./kg.) or water orally fifteen minutes prior to an orally administered dose of absolute ethanol (1.0 ml.). One hour after the ethanol challenge the animals (8/group) are killed and the stomachs examined for the presence of lesions. All drugs were dissolved in dilute NaOH. After sacrifice the abdomen is opened and a locking hemostat placed at the pylorus. 6 ml. of a 4% solution of formaldehyde was injected into the stomach with a gastric feeding tube and a second locking hemostat was used to seal the esophagus. The stomach was removed, opened along the greater curvature and examined for ulceration.
The scoring system used to quantitate the ethanol-induced lesions is given below.
For each group of animals an ulcer index is calculated as follows:
Ulceration Index=(the sum of the scores of the group)×(the sum of the number of ulcers in the group)×(the fraction of the group having any incidence of ulceration).
The percentage inhibition of ulcers is calculated as follows:
% Inhibition=100×[(ulcer index controls)-(ulcer index drug-treated)].div.(ulcer index controls).

[2] = test system: IgG (hyperimmune antiserum) PCA reaction; assay: Oral activity in PCA test, IgG; format: in vivo; settings: Rattus norvegicus
Method: as §1
The ability of agents to interfere with PCA reactions is measured in male Charles River Wistar rats, 170-210 g. Reaginic antiserum, rich in IgE antibodies, is prepared according to Petillo et al., Int. Arch. Allergy, 44, 309 (1973). Hyperimmune antiserum rich in IgG antibodies to hen egg albumin is prepared according to Orange et al., J. Exptl. Med., 127, 767 (1968). Forty-eight hours prior to antigen challenge, the reaginic antiserum is injected intradermally (i.d.) into the shaved skin of a normal rat's back; 5 hours before challenge the hyperimmune antisera is similarly injected. At a third site 60 mcg. histamine dihydrochloride and 0.5 mcg. serotonin creatinine sulfate are injected i.d. just prior to antigen challenge as a check for antihistaminic, antiserotonin and unspecific types of blockage; the compounds of the instant invention or saline are then administered i.v. and immediately followed by the challenge of 5 mg. egg albumen and 2.5 mg. Evans' Blue dye in saline. In the case of oral administration Evans' Blue dye and egg albumin are given 5 minutes after administration of the drug. Thirty minutes later the animals are asphyxiated using chloroform and the skin of the back removed and reversed for observation. A score is assigned each injection site equal to the product of the diameter of the site in mm. and a grade of 0.1, 0.5, 1, 2, 3 or 4 proportional to intensity of dye coloration. The scores for a given injection site are summed for each group of five animals and compared to the saline treated controls. The difference is expressed as percent blockage due to the compound employed.
Compounds representative of those of the present invention are tested for antiallergy activity by the above-described procedure and the resulting activities are reported as the degree (%) of protection.

bronchi = settings: Cox et al., Adv. in Drug Res., 5, 115 (1970); cited from earlier work
allergic reactions = settings: cited from earlier work
[3] = Water solubility and hygroscopicity; format: physicochemical
[4] = Oral absorption and plasma concentrations, rats; format: in vivo, rat; settings: after oral administration of III
Method: (§2) This is supported by the observations of plasma concentrations of 3 to 7 μg/ml one hour after oral administration of III, 50 to 300 mg/kg.

[5] = Oral absorption and plasma concentrations, dogs; format: in vivo, dog; settings: after oral administration of III
Method: as §2

[6] = Plasma levels after repeated daily dosing; format: in vivo; settings: after the eighth daily dose of III
Method: as §2

[7] = Table II acids, read-out: Oral Activity (% of Protection) of Acids in the PCA Test, IgE
[8] = Table II acids, read-out: Oral Activity (% of Protection) of Acids in the PCA Test, IgG
[9] = Table I amides, read-out: Oral Activity (% of Protection) in the PCA Test, IgE
[10] = Table I amides, read-out: Oral Activity (% of Protection) in the PCA Test, IgG
[11] = read-out: Oral Activity (% of Protection) in the PCA Test, IgE
[12] = read-out: Oral Activity (% of Protection) in the PCA Test, IgG

CCc1cn2c(=O)c(C(=O)O)cnc2s1 [Formula II: R1=C2H5, R2=H, 1-Oxo-1H-6-ethylthiazolo[3,2-a]pyrimidine-2-carboxylic Acid]
inhibition in vivo at 30 mg/kg [1, 7]: 45%
% Inhibition in the Ethanol-Induced Rat Ulcer Assay, acids (ethanol-induced ulcer): 48%
inhibition in vivo at 30 mg/kg [2, 8]: 38%

O=C(O)c1cc(=O)c2c(OCC(O)COc3cccc4oc(C(=O)O)cc(=O)c34)cccc2o1 [Intal, 1,3-bis(2-carboxycromon-5-yloxy)-2-hydroxypropane]
bronchodilator action (bronchi): not a bronchodilator
activity by the oral route (allergic reactions): lacks efficacy by the oral route; also recorded: not active by the oral route
activity by the oral route (allergic reactions; listed as disodium cromoglycate): lack of oral efficacy

Cc1sc2ncc(C(=O)O)c(=O)n2c1C [Formula II: R1=CH3, R2=CH3, 1-Oxo-1H-6,7-dimethylthiazolo[3,2-a]pyrimidine-2-carboxylic Acid]
inhibition in vivo at 30 mg/kg [1, 7]: 0%
% Inhibition in the Ethanol-Induced Rat Ulcer Assay, acids (ethanol-induced ulcer): 11%
inhibition in vivo at 30 mg/kg [2, 8]: 0%

CCc1sc2ncc(C(=O)O)c(=O)n2c1CC [Formula II: R1=C2H5, R2=C2H5, 1-Oxo-1H-6,7-diethylthiazolo[3,2-a]pyrimidine-2-carboxylic Acid]
inhibition in vivo at 30 mg/kg [1, 7]: 41%
% Inhibition in the Ethanol-Induced Rat Ulcer Assay, acids (ethanol-induced ulcer): 48%
inhibition in vivo at 30 mg/kg [2, 8]: 32%

Cc1csc2ncc(C(=O)O)c(=O)n12 [Formula II: R1=H, R2=CH3, 1-Oxo-1H-7-methylthiazolo[3,2-a]pyrimidine-2-carboxylic acid]
inhibition in vivo at 30 mg/kg [1, 7]: 18%
% Inhibition in the Ethanol-Induced Rat Ulcer Assay, acids (ethanol-induced ulcer): 27%
inhibition in vivo at 30 mg/kg [2, 8]: 19%

O=C(Nc1nnn[nH]1)c1cnc2sc3c(n2c1=O)CCCC3 [sodium salt (trihydrate), sodium N-(5-tetrazolyl)-1-oxo-1H-cyclohexenothiazolo[3,2-a]pyrimidine-2-carboxamide trihydrate]
hygroscopicity [3]: non-hygroscopic
water solubility [3]: good water solubility

CCc1cn2c(=O)c(C(=O)Nc3nnn[nH]3)cnc2s1 [Formula I: R1=C2H5, R2=H, N-(5-Tetrazolyl)-1-oxo-1H-6-ethylthiazolo[3,2-a]pyrimidine-2-carboxamide]
inhibition in vivo at 30 mg/kg [1, 9]: 85%
% Inhibition in the Ethanol-Induced Rat Ulcer Assay, amides (ethanol-induced ulcer): 86%
inhibition in vivo at 30 mg/kg [2, 10]: 58%

O=C(O)c1cnc2sc3c(n2c1=O)CCCC3 [Formula II: (CH2)4, 1-Oxo-1H-cyclohexenothiazolo[3,2-a]pyrimidine-2-carboxylic Acid]
inhibition in vivo at 10 mg/kg ([1]; 10 mg./kg., Table II acids, read-out: Oral Activity (% of Protection) of Acids in the PCA Test, IgE): 55%
% Inhibition in the Ethanol-Induced Rat Ulcer Assay, acids (ethanol-induced ulcer): 21%
plasma levels of carboxylic acid metabolite [4]: comparable to those of III
plasma levels of carboxylic acid metabolite [5]: comparable to those of III
inhibition in vivo at 10 mg/kg ([2]; 10 mg./kg., Table II acids, read-out: Oral Activity (% of Protection) of Acids in the PCA Test, IgG): 39%
levels after the eighth daily dose relative to initial dose [6]: 2 to 4 times

Cc1csc2ncc(C(=O)Nc3nnn[nH]3)c(=O)n12 [Formula I: R1=H, R2=CH3, N-(5-Tetrazolyl)-1-oxo-1H-7-methylthiazolo[3,2-a]pyrimidine-2-carboxamide]
inhibition in vivo at 3 mg/kg [1, 11]: 55%
% Inhibition in the Ethanol-Induced Rat Ulcer Assay, amides (ethanol-induced ulcer): 59%
inhibition in vivo at 3 mg/kg [2, 12]: 50%

O=C(Nc1nnn[nH]1)c1cnc2sc3c(n2c1=O)CCCCCC3 [Formula I: (CH2)6, N-(5-Tetrazolyl)-1-oxo-1H-cyclooctenothiazolo[3,2-a]pyrimidine-2-carboxamide]
inhibition in vivo at 30 mg/kg [1, 9]: 94%
% Inhibition in the Ethanol-Induced Rat Ulcer Assay, amides (ethanol-induced ulcer): 45%
inhibition in vivo at 30 mg/kg [2, 10]: 57%

Cc1sc2ncc(C(=O)Nc3nnn[nH]3)c(=O)n2c1C [Formula I: R1=CH3, R2=CH3, N-(5-Tetrazolyl)-1-oxo-1H-6,7-dimethylthiazolo[3,2-a]pyrimidine-2-carboxamide]
inhibition in vivo at 3 mg/kg [1, 11]: 55%
% Inhibition in the Ethanol-Induced Rat Ulcer Assay, amides (ethanol-induced ulcer): 96%
inhibition in vivo at 3 mg/kg [2, 12]: 51%

CCc1sc2ncc(C(=O)Nc3nnn[nH]3)c(=O)n2c1CC [Formula I: R1=C2H5, R2=C2H5, N-(5-Tetrazolyl)-1-oxo-1H-6,7-diethylthiazolo[3,2-a]pyrimidine-2-carboxamid]
inhibition in vivo at 30 mg/kg [1, 9]: 62%
% Inhibition in the Ethanol-Induced Rat Ulcer Assay, amides (ethanol-induced ulcer): 10%
inhibition in vivo at 30 mg/kg [2, 10]: 49%

Cc1cn2c(=O)c(C(=O)O)cnc2s1 [Formula II: R1=CH3, R2=H, 1-Oxo-1H-6-methylthiazolo[3,2-a]pyrimidine-2-carboxylic Acid]
inhibition in vivo at 30 mg/kg [1, 7]: 12%
% Inhibition in the Ethanol-Induced Rat Ulcer Assay, acids (ethanol-induced ulcer): 0%
inhibition in vivo at 30 mg/kg [2, 8]: 14%

Cc1cn2c(=O)c(C(=O)Nc3nnn[nH]3)cnc2s1 [Formula I: R1=CH3, R2=H, N-(5-Tetrazolyl)-1-oxo-1H-6-methylthiazolo[3,2-a]pyrimidine-2-carboxamide]
inhibition in vivo at 30 mg/kg [1, 9]: 78%
% Inhibition in the Ethanol-Induced Rat Ulcer Assay, amides (ethanol-induced ulcer): 72%
inhibition in vivo at 30 mg/kg [2, 10]: 55%
